What all share (test): antifungal susceptibility testing (MIC, MFC), extended spectrum
For test [1], the system named is C. parapsilosis 111.96. It counts as cell-based, Candida parapsilosis. The settings on record: Lodderomyces parapsilosis. As for the experimental part:
(§1) Antifungal susceptibility testing for compounds set forth in Examples 1-20 is discussed hereinbelow. […]
(§2) In vitro susceptibility testing in the form of Minimum Inhibitory Concentration (MIC) experiments were performed using the broth macrodilution method according to the recommendations of the National Committee for Clinical Laboratory Standards (see 1995 manual). […] Briefly, this procedure specifies an inoculum grown at 35° C. and adjusted to a concentration of 0.5-2.5×10^3 CFU/ml with an incubation of the test performed at 35° C. and reading at 48 hours for all yeasts except for C. neoformans which is interpreted at 72 hr.
(§3) Minimum Fungicidal Concentration (MFC) experiments were adapted from a method by McGinnis (McGinnis, M. R., (1980) "Susceptibility testing and bioassay procedure", p. 431, Academic Press, Inc., New York). […] The lowest drug concentration that yielded three or fewer yeasts colonies was recorded as the MFC. […]
(§4) Minimum Fungicidal Concentration (MFC) experiments were adapted from a method by McGinnis (McGinnis, M. R., (1980) "Susceptibility testing and bioassay procedure", p.431, Academic Press, Inc., New York). […] The lowest drug concentration that yielded 3 or fewer yeasts colonies was recorded as the MFC. […]

Test [2] has as its system C. albicans 102.96. It counts as cell-based, Candida albicans. The settings on record: Candida albicans, C. albicans 102.96, fluconazole-resistant. An excerpt:
(§5) Antifungal susceptibility testing for compounds set forth in Examples 1-20 is discussed hereinbelow. The fungi that were employed included two reference strains, C. neoformans var. neoformans H99 and C. albicans A39 and the following clinical isolates: (1) two strains of fluconazole-resistant C. neoformans var. neoformans (135.95 and 114.96); (2) two strains of C. neoformans var. gattii (119.95 and 114.95); (3) two strains of fluconazole-resistant C. albicans (102.96 and 103.96); and (4) one strain each of Torulopsis glabrata (142.91), Candida parapsilosis (111.96), Candida krusei (132.91), C. tropicalis (110.96), Candida lusitaniae (111.92), Fusarium solani (152.89), Aspergillus fumigatus (168.95), and Aspergillus flavus (112.96). Antifungal susceptibility testing was performed using an RPMI-1640 medium (Sigma Chemical Co., St. Louis, Mo.) with glutamine, without sodium bicarbonate, and buffered at pH 7.0 with 0.165 M morpholine-propanesulfonic acid (MOPS).
(§6) In vitro susceptibility testing in the form of Minimum Inhibitory Concentration (MIC) experiments were performed using the broth macrodilution method according to the recommendations of the National Committee for Clinical Laboratory Standards (see 1995 manual). The only difference compared to the standardized procedure was the choice of drug dilutions ranging from 100 to 0.09 μg/ml. Briefly, this procedure specifies an inoculum grown at 35° C. and adjusted to a concentration of 0.5-2.5×10^3 CFU/ml with an incubation of the test performed at 35° C. and reading at 48 hours for all yeasts except for C. neoformans which is interpreted at 72 hr.
(§7) Minimum Fungicidal Concentration (MFC) experiments were adapted from a method by McGinnis (McGinnis, M. R., (1980) "Susceptibility testing and bioassay procedure", p. 431, Academic Press, Inc., New York). Briefly, 10 μl aliquots from tubes with growth inhibition were plated onto Sabouraud agar plates. The lowest drug concentration that yielded three or fewer yeasts colonies was recorded as the MFC.
(§8) Antifungal susceptibility testing for compounds set forth in Examples 21-28 is discussed hereinbelow. The fungi that were employed included two quality control reference strains, C. neoformans var. neoformansH99 and C. albicans A39 and the following clinical isolates: (1) four strains of C. neoformans var. neoformans (167.95; 135.95; 114.96; and 133.95) of which three were fluconazole-resistant>64 μg/ml (135.95; 114.96; and 133.95); (2) two strains of C. neoformans var. gattii (119.95 and 114.95); (3) two strains of fluconazole-resistant>64 μg/ml C. albicans (102.96 and 103.96); and (4) one strain each of C. glabrata (142.91), Candida parapsilosis (111.96), Candida krusei (132.91), C. tropicalis (110.96), Candida lusitaniae (111.92), Fusarium solani (152.89), Aspergillus fumigatus (168.95), Rhizopus arrhizus (117.89), Paecilomyces lilacinus (137.90), and Aspergillus flavus (112.96). Antifungal susceptibility testing was performed using an RPMI-1640 medium (Sigma Chemical Co., St. Louis, Mo.) with glutamine, without sodium bicarbonate, and buffered at pH 7.0 with 0.165 M morpholinepropanesulfonic acid (MOPS).
(§9) Minimum Fungicidal Concentration (MFC) experiments were adapted from a method by McGinnis (McGinnis, M. R., (1980) "Susceptibility testing and bioassay procedure", p.431, Academic Press, Inc., New York). Briefly, 10 μl aliquots from tubes with growth inhibition were plated onto Sabouraud agar plates. The lowest drug concentration that yielded 3 or fewer yeasts colonies was recorded as the MFC. Several drugs were also rescreened with a subculture of 100 μl aliquots from tubes with no growth and there was no change in MFC.

The test system of test [3] is C. albicans 103.96. It counts as cell-based, Candida albicans. Particulars: Candida albicans, C. albicans 103.96, fluconazole-resistant.
Source text: as §5, §6, §7, §8, §9

In test [4] the test system is Candida albicans A39. It counts as cell-based. The settings on record: Candida albicans A39.
Source text: as §5, §6, §7
(§10) Antifungal susceptibility testing for compounds set forth in Examples 21-28 is discussed hereinbelow. […]
as §4

Test [5] has as its system C. lusitaniae 111.92. It counts as cell-based, Candida lusitaniae. Particulars: Clavispora lusitaniae. As for the experimental part: as §1, §2, §3, §4
Test [6] concerns C. krusei 132.91. It counts as cell-based, Candida krusei. The settings on record: Pichia kudriavzevii. The protocol: as §1, §2, §3, §4
The subject of test [7] is C. neoformans 114.96. It is filed as cell-based, C. neoformans var. neoformans. Particulars: Cryptococcus neoformans, C. neoformans 114.96, fluconazole-resistant.
Source text: as §5, §2, §3, §4

Test [8] concerns Torulopsis glabrata 142.91. It counts as cell-based. The settings on record: Nakaseomyces glabratus.
Source text: as §5, §6, §7, §10, §4

Test [9] relates to C. tropicalis 110.96. It is filed as cell-based. The settings on record: Candida tropicalis.
Source text: as §5, §6, §7, §10, §4

SMILES strings stand for the structures. Where a name gives a salt, the structure may show the parent alone.

As to `CC(C)NC(=N)c1ccc2nc(-c3ccc4c(c3)Cc3cc(-c5nc6ccc(C(=N)NC(C)C)cc6[nH]5)ccc3-4)[nH]c2c1` [Compound 57, 2,7-Bis[2-(5-N-isopropylamidino)benzimidazoyl]fluorene hydrochloride], the MFC (in general, the smallest concentration meeting the test's criterion for killing the fungus) in test [1] stood at 0.78 µg/mL; in test [2] it was 12.5 µg/mL; in test [3], 12.5 µg/mL; in test [4], 1.56 µg/mL; in test [5], 3.12 µg/mL; in test [6] it was 0.78 µg/mL. The MFC in test [7] came out at 0.78 µg/mL; in test [8], 0.78 µg/mL; in [9], 1.56 µg/mL. Also, the MIC came out at 0.78 µg/mL in [1] (48 hours, read-out: MIC80); 1.56 µg/mL in test [2] (48 hours, read-out: MIC80); 1.56 µg/mL in test [3] (48 hours, read-out: MIC80); 0.78 µg/mL in test [4] (48 hours, read-out: MIC80); 0.78 µg/mL in [5] (48 hours, read-out: MIC80); 0.78 µg/mL in [6] (48 hours, read-out: MIC80). Further, the MIC in [7] (72 hr, read-out: MIC80) worked out at 0.78 µg/mL; in test [8] (48 hours, read-out: MIC80), 0.78 µg/mL; in test [9] (48 hours, read-out: MIC80), 0.78 µg/mL.
